This note sets out measurements from Sander's compilation of Henry's law constants (doi:10.1021/je700418a).

A short description of this data set: Henry solubility constant Hcp at 298.15 K (mol/(m3 Pa)). The conditions noted are these: reference: Helburn et al. (2008).
`ClCCl` [dichloromethane]: the “Henry solubility constant Hcp” value stood at 0.0032. For `Cc1ccccc1` [methylbenzene], the “Henry solubility constant Hcp” value turned out to be 0.0014. Then `CCCCOC(C)=O` [butyl ethanoate], with 0.021. With `ClC=C(Cl)Cl` [trichloroethene], the “Henry solubility constant Hcp” value turned out to be 0.00094. Under `CC(C)C12CCC(C)(CC1)O2` [1-methyl-4-(1-methylethyl)-7-oxabicyclo[2.2.1]heptane] stands 0.039.

In the case of `CCCCCCCCCC=O` [decanal], the “Henry solubility constant Hcp” value is 0.0043.

As for `CC(C)O` [2-propanol], the “Henry solubility constant Hcp” value came out at 0.68. Turning to `CCOCC` [diethyl ether], the “Henry solubility constant Hcp” value is 0.095.

As to `C=C(C)[C@H]1CC=C(C)CC1` [(R)-1-methyl-4-(1-methylethenyl)-cyclohexene], the “Henry solubility constant Hcp” value came to 0.00026. Take `CC(C)=CCCC(C)=CC#N` [3,7-dimethyl-2,6-octadienenitrile]: the “Henry solubility constant Hcp” value was 0.029.

`C1CCCCC1` [cyclohexane]: the “Henry solubility constant Hcp” value amounted to 8e-05.
